Source: ChEMBL document CHEMBL1201862, “PubChem BioAssay data set” (2004)
Where “and” joins values, the source holds several entries; their conditions need not be identical. Equal values may be shown once.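 Test compounds were applied to cells in 96-well plates for 48 hours at 5 doses. GI50 = concentration required for 50% inhibition of growth.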 Calls of active or inactive are those of the source. No stated cut-off is given here; in the data, active = GI50 up to about 1.1 µM and inactive = higher.

Legend:
Assay in all cases: inhibition of tumour cell growth, NCI panel, 48 h
HOP-92 = system: HOP-92
HCC 2998 = system: HCC 2998
Malme-3M = system: Malme-3M
SK-OV-3 = system: SK-OV-3
SNB-19 = system: SNB-19
SF-268 = system: SF-268
Hs-578T = system: Hs-578T
NCI-H460 = system: NCI-H460
MCF7 = system: MCF7
NCI/ADR-RES = system: NCI/ADR-RES
MDA-MB-435 = system: MDA-MB-435
M14 = system: M14
HCT-15 = system: HCT-15
786-0 = system: 786-0
SK-MEL-2 = system: SK-MEL-2
OVCAR-5 = system: OVCAR-5
MDA-MB-231 = system: MDA-MB-231
U-251 = system: U-251
UACC-62 = system: UACC-62
MOLT-4 = system: MOLT-4

| SMILES | GI50 (HOP-92) | GI50 (HCC 2998) | GI50 (Malme-3M) | GI50 (SK-OV-3) | GI50 (SNB-19) | GI50 (SF-268) | GI50 (Hs-578T) | GI50 (NCI-H460) | GI50 (MCF7) | GI50 (NCI/ADR-RES) | GI50 (MDA-MB-435) | GI50 (M14) | GI50 (HCT-15) | GI50 (786-0) | GI50 (SK-MEL-2) | GI50 (OVCAR-5) | GI50 (MDA-MB-231) | GI50 (U-251) | GI50 (UACC-62) | GI50 (MOLT-4) |
| --- | --- | --- | --- | --- | --- | --- | --- | --- | --- | --- | --- | --- | --- | --- | --- | --- | --- | --- | --- | --- |
| NC(=S)NS(=O)(=O)c1ccc(F)cc1F | > 100 µM (inactive) | > 100 µM (inactive) | > 100 µM (inactive) | > 100 µM (inactive) | > 100 µM (inactive) | > 100 µM (inactive) | > 100 µM (inactive) | > 100 µM (inactive) | > 100 µM (inactive) | > 100 µM (inactive) | > 100 µM (inactive) | > 100 µM (inactive) | > 100 µM | > 100 µM (inactive) | > 100 µM (inactive) | > 100 µM (inactive) | > 100 µM (inactive) | > 100 µM (inactive) | > 100 µM (inactive) | > 100 µM (inactive) |
| CC(=O)Oc1ccc(/C=C/C(=O)NCCOC(=O)/C=C/c2ccc(OC(C)=O)c(OC(C)=O)c2)cc1OC(C)=O | 28.2 µM (inactive) | 34.3 µM (inactive) | 28.5 µM (inactive) | 42 µM (inactive) | 21.2 µM (inactive) | 20 µM (inactive) | 33.6 µM (inactive) | 32 µM (inactive) | 29.5 µM (inactive) | 70.1 µM (inactive) | 31.7 µM (inactive) | 27.8 µM (inactive) | 34.8 µM | 19.5 µM (inactive) | 46.5 µM (inactive) | 23.8 µM (inactive) | 45.2 µM (inactive) | 28.4 µM (inactive) | 18.7 µM (inactive) | 4.8 µM (inactive) |
| Clc1ccc(C2=CC(c3ccccc3)N3C(=N[C@H]4CCCC[C@@H]43)N2)cc1 (stereo not given in full) | 4.68 µM (inactive) | 2.08 µM (inactive) | 2.67 µM (inactive) | 14.3 µM (inactive) | 4.55 µM (inactive) | 6.14 µM (inactive) | 3.12 µM (inactive) | 2.88 µM (inactive) | 3.55 µM (inactive) | 4.35 µM (inactive) | 7.57 µM (inactive) | 2.98 µM (inactive) | 4.08 µM | 2.79 µM (inactive) | 13.6 µM (inactive) | 11.5 µM (inactive) | 9.08 µM (inactive) | 4.54 µM (inactive) | 5.82 µM (inactive) | 2.64 µM (inactive) |
| O=c1cc(C(F)(F)F)c2cc3c(cc2o1)NCCC3 | 46.1 µM (inactive) | > 100 µM (inactive) | > 100 µM (inactive) | – | 23 µM (inactive) | 24.5 µM (inactive) | 18.5 µM (inactive) | > 100 µM (inactive) | 3.16 µM (inactive) | > 100 µM (inactive) | > 100 µM (inactive) | > 100 µM (inactive) | > 100 µM | 35.2 µM (inactive) | 78.3 µM (inactive) | > 100 µM (inactive) | > 100 µM (inactive) | 23.1 µM (inactive) | – | > 100 µM (inactive) |
| CC(=O)C1C(=O)C(=O)N(c2cccc([N+](=O)[O-])c2)C1=O (stereo not given) | > 100 µM (inactive) | > 100 µM (inactive) | – | > 100 µM (inactive) | > 100 µM (inactive) | > 100 µM (inactive) | > 100 µM (inactive) | > 100 µM (inactive) | > 100 µM (inactive) | > 100 µM (inactive) | > 100 µM (inactive) | > 100 µM (inactive) | > 100 µM | > 100 µM (inactive) | > 100 µM (inactive) | > 100 µM (inactive) | > 100 µM (inactive) | > 100 µM (inactive) | > 100 µM (inactive) | > 100 µM (inactive) |
| O=C1Nc2nnc(S)n2NC12c1ccccc1-c1ccccc12 | > 100 µM (inactive) | > 100 µM (inactive) | > 100 µM (inactive) | > 100 µM (inactive) | > 100 µM (inactive) | 65.2 µM (inactive) | > 100 µM (inactive) | 39.4 µM (inactive) | 33.2 µM (inactive) | > 100 µM (inactive) | 16.8 µM (inactive) | 52 µM (inactive) | 97.3 µM | > 100 µM (inactive) | > 100 µM (inactive) | > 100 µM (inactive) | > 100 µM (inactive) | > 100 µM (inactive) | 22.4 µM (inactive) | – |
| CCOC(=O)C1Cc2ccc(C)cc2C1=O (stereo not given) | > 100 µM (inactive) | > 100 µM (inactive) | 70 µM (inactive) | > 100 µM (inactive) | – | 79.3 µM (inactive) | > 100 µM (inactive) | > 100 µM (inactive) | > 100 µM (inactive) | 85.1 µM (inactive) | 54.5 µM (inactive) | > 100 µM (inactive) | 61.4 µM | > 100 µM (inactive) | > 100 µM (inactive) | > 100 µM (inactive) | > 100 µM (inactive) | 58.1 µM (inactive) | 49.1 µM (inactive) | 39.4 µM (inactive) |
| COC(=O)CCC1(O)C=CC(=O)C=C1 | 65.6 µM (inactive) | 63.5 µM (inactive) | 17 µM (inactive) | – | 37.8 µM (inactive) | 29.6 µM (inactive) | 29.4 µM (inactive) | 28.2 µM (inactive) | 38.3 µM (inactive) | 31.3 µM (inactive) | > 100 µM (inactive) | 40.8 µM (inactive) | 18.4 µM | 36.4 µM (inactive) | > 100 µM (inactive) | > 100 µM (inactive) | > 100 µM (inactive) | 21.1 µM (inactive) | 20.3 µM (inactive) | 37.7 µM (inactive) |
| C[N+]1(CCC[N+]2(C)CC3C4C=CC(CC4)C3C2)CCOCC1 (stereo not given) | > 100 µM (inactive) | 86.7 µM (inactive) | > 100 µM (inactive) | > 100 µM (inactive) | > 100 µM (inactive) | > 100 µM (inactive) | > 100 µM (inactive) | – | > 100 µM (inactive) | > 100 µM (inactive) | > 100 µM (inactive) | > 100 µM (inactive) | > 100 µM | > 100 µM (inactive) | > 100 µM (inactive) | > 100 µM (inactive) | > 100 µM (inactive) | > 100 µM (inactive) | > 100 µM (inactive) | > 100 µM (inactive) |
| CN1Cc2ccccc2/C=C\c2ccccc21 | 28 µM (inactive) | 47.9 µM (inactive) | 51.4 µM (inactive) | 87.3 µM (inactive) | > 100 µM (inactive) | 39.4 µM (inactive) | 44.8 µM (inactive) | 42.7 µM (inactive) | 24.7 µM (inactive) | > 100 µM (inactive) | 39.8 µM (inactive) | 46.8 µM (inactive) | 52.4 µM | 95.9 µM (inactive) | 25.4 µM (inactive) | – | 96.2 µM (inactive) | > 100 µM (inactive) | 60.8 µM (inactive) | – |
| CN(C)c1ccc(C2CC(c3ccc4ccccc4c3O)=NN2c2ccc([N+](=O)[O-])cc2[N+](=O)[O-])cc1 (stereo not given) | > 100 µM (inactive) | 71 µM (inactive) | 19.2 µM (inactive) | > 100 µM (inactive) | – | 98.4 µM (inactive) | 48.8 µM (inactive) | 32.3 µM (inactive) | 23.8 µM (inactive) | 43.5 µM (inactive) | 17.5 µM (inactive) | 63 µM (inactive) | 61.5 µM | > 100 µM (inactive) | 25.5 µM (inactive) | > 100 µM (inactive) | 22 µM (inactive) | 41.9 µM (inactive) | 14.3 µM (inactive) | 22.8 µM (inactive) |
| C=CCSC1=N/C(=C\c2ccc(C)cc2)C(=O)N1CC=C | 11.7 µM (inactive) | 23.8 µM (inactive) | – | 63.4 µM (inactive) | 32.4 µM (inactive) | 36.6 µM (inactive) | 54.8 µM (inactive) | 34.3 µM (inactive) | 20.9 µM (inactive) | 40.5 µM (inactive) | 25.9 µM (inactive) | 29 µM (inactive) | 25.3 µM | 18.3 µM (inactive) | 25.8 µM (inactive) | 25.4 µM (inactive) | 90.4 µM (inactive) | 22.7 µM (inactive) | 32.3 µM (inactive) | – |
| C=C(C(=O)O)[C@@H]1C[C@@H]2O[C@H]1[C@@H](O)[C@@H](C)CCCC(C)=CCC[C@@]2(C)O | > 100 µM (inactive) and 99.8 µM (inactive) | > 100 µM (inactive) | > 100 µM (inactive) and > 72.9 µM (inactive) | > 100 µM (inactive) | > 100 µM (inactive) | > 100 µM (inactive) | > 100 µM (inactive) | > 100 µM (inactive) | 46 µM (inactive) and > 91.6 µM (inactive) | > 100 µM (inactive) | 71.8 µM (inactive) and > 81.3 µM (inactive) | > 100 µM (inactive) and > 77.4 µM (inactive) | > 100 µM and 78.3 µM | 56.6 µM (inactive) and > 69.5 µM (inactive) | > 100 µM (inactive) | > 100 µM (inactive) | > 100 µM (inactive) | > 100 µM (inactive) and 97.3 µM (inactive) | > 100 µM (inactive) and > 90.4 µM (inactive) | – |
| CC1(C)OC(=O)C(C#N)=C1C[n+]1ccccc1 | > 10 µM (inactive) | > 10 µM (inactive) | > 10 µM (inactive) | > 10 µM (inactive) | > 10 µM (inactive) | > 10 µM (inactive) | > 10 µM (inactive) | > 10 µM (inactive) | > 10 µM (inactive) | > 10 µM (inactive) | > 10 µM (inactive) | > 10 µM (inactive) | > 10 µM | > 10 µM (inactive) | > 10 µM (inactive) | > 10 µM (inactive) | > 10 µM (inactive) | > 10 µM (inactive) | – | > 10 µM (inactive) |
| O=C(Nc1ccc(Cl)cc1Cl)c1cc2nc3ccccc3c(=O)n2c2ccccc12 | > 10 µM (inactive) | > 10 µM (inactive) | > 10 µM (inactive) | > 10 µM (inactive) | > 10 µM (inactive) | > 10 µM (inactive) | > 10 µM (inactive) | > 10 µM (inactive) | > 10 µM (inactive) | > 10 µM (inactive) | > 10 µM (inactive) | > 10 µM (inactive) | > 10 µM | > 10 µM (inactive) | > 10 µM (inactive) | > 10 µM (inactive) | > 10 µM (inactive) | > 10 µM (inactive) | > 10 µM (inactive) | – |
